The target in one test is PRMT5/MEP50 complex (Homo sapiens, UniProt O14744). The test can be described thus: Inhibition of recombinant human fetal brain FLAG-tagged PRMT5/full length human testis 6His-tagged MEP50 expressed in baculovirus infected insect Sf9 cells using human histone H4 (1 to 15 residues) as substrate preincubated for 30 mins followed by [3H]-SAM addition.
Test [1] deals with Protein arginine N-methyltransferase 5 (Homo sapiens, UniProt O14744). The test can be described thus: Inhibition of PRMT5 in human Z138 cells assessed as decrease in di-methyl arginine levels after 96 hrs by Western blot method. It is filed as cell-based.
Protein arginine N-methyltransferase 5, sequence (O14744 whole entry): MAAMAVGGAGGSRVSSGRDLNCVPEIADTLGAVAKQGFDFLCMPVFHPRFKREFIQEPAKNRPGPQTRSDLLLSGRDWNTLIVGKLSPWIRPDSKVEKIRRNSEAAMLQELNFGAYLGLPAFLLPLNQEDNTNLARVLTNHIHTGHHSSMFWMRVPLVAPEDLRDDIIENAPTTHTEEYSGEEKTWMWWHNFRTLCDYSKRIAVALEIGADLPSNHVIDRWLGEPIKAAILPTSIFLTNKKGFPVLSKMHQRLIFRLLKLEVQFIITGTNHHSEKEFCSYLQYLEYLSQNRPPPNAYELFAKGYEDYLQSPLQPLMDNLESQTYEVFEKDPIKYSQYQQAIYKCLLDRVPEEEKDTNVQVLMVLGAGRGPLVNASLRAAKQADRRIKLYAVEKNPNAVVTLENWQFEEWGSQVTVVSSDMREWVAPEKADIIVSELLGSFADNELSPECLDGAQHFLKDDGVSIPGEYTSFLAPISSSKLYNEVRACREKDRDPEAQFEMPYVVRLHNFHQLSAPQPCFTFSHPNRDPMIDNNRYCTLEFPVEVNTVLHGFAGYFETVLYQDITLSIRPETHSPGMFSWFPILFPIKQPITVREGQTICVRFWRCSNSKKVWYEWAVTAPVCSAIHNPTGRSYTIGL
The nature of test [2]: Antiproliferative activity against human Z138 cells assessed as inhibition of cell viability after 5 days by Cell-Titer Glo assay. It counts as functional, cell-based. As to conditions: Z-138, 120 h.

This is an account of results in ChEMBL document CHEMBL3879915, “Methods of inhibiting PRMT5” (2014).

Structures are written as SMILES. pEC50, pIC50: −log10 of the molar value.

PRMT5/MEP50 complex, sequence (O14744 whole entry, the tested form may be a part): as the sequence (O14744 whole entry) above
PRMT5/MEP50 complex, sequence (Q9BQA1 whole entry, further chain, the tested form may be a part): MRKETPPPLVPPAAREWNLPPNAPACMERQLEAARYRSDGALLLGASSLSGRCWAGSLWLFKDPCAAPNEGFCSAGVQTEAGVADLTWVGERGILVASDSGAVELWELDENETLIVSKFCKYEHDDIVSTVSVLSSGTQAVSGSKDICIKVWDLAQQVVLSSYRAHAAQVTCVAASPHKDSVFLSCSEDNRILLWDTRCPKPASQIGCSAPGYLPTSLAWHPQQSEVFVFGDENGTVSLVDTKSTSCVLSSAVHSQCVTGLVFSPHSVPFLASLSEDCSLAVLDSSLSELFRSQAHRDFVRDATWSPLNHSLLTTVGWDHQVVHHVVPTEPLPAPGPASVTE

Usually pIC50 stands for the negative decadic logarithm of the IC50, by convention in mol/L. The pEC50 is −log10 of the EC50, conventionally taken in molar units. As to `Cn1cnc2ccc(NCC(=O)NCC(O)CN3CCc4ccccc4C3)cc21` (configuration not stated), at PRMT5/MEP50 complex, the pIC50 is 6.00 to 7.00. Further, in test [1], the pEC50 is 5.00 to 6.00.
Consider `CN(C)CCOc1ccccc1OCC(=O)NC[C@@H](O)CN1CCc2ccccc2C1`, for which the pIC50 at PRMT5/MEP50 complex is 6.00 to 7.00. Besides, the pEC50 in test [1] is 5.00 to 6.00.
Take `O=c1cc(-c2ccccc2)ccn1C[C@@H](O)CN1CCc2ccccc2C1`: in test [1], the pEC50 was under 4.30.
Consider `OC(COCC1CCCO1)CN1CCc2ccccc2C1` (configuration not stated), for which the pIC50 at PRMT5/MEP50 complex was 4.40 to 5.00. For the same compound, in test [2], the pEC50 was under 4.40.
Taken in the same sequence, the figures for `OC(COC1CCCCCC1)CN1CCc2ccccc2C1` (configuration not stated) were 5.00 to 6.00 and under 4.40.
Regarding `OC(COCC1CCNC1)CN1CCc2ccccc2C1` (configuration not stated), on PRMT5/MEP50 complex, the pIC50 is under 4.40. For the same compound, the pEC50 in test [2] was under 4.40.
Take `O=C(NCC(O)CN1CCc2ccccc2C1)c1cccc(NC2CCOC2)c1` (configuration not stated): the pIC50 at PRMT5/MEP50 complex was over 7.00. Also, the pEC50 in test [1] was 6.00 to 7.00.
Consider `O=C1CN(c2ccccc2F)CCN1CC(O)CN1CCc2ccccc2C1` (configuration not stated), for which the pEC50 in test [1] is under 4.30.
On to `Cc1cn(C)c2cccc(OCC(=O)NCC(O)CN3CCc4ccccc4C3)c12` (configuration not stated), for which the pIC50 at PRMT5/MEP50 complex is over 7.00. The pEC50 in test [1] was 6.00 to 7.00.
On to `OC(COc1cccc(-c2ccccc2F)c1)CN1CCc2ccccc2C1` (configuration not stated), for which the negative logarithm of the IC50 (pIC50) at PRMT5/MEP50 complex is 6.00 to 7.00. Also, in test [1], the pEC50 is 5.00 to 6.00.
Regarding `Cc1ccccc1N1CCN(CC(O)CN2CCc3ccccc3C2)C(=O)C1` (configuration not stated), the pEC50 in test [1] was under 4.30.
As for `O=C(Nc1cccc(OCC(O)CN2CCc3ccccc3C2)c1)c1cccnn1` (configuration not stated), the pIC50 on PRMT5/MEP50 complex was 5.00 to 6.00. Further, the pEC50 in test [1] was 5.00 to 6.00.
As for `CN1CCC(OCC(O)CN2CCc3ccccc3C2)C1` (configuration not stated), the pIC50 on PRMT5/MEP50 complex was under 4.40. Further, the pEC50 in test [2] was under 4.40.
`O=C(Nc1cccc(OCC(O)CN2CCc3ccccc3C2)c1)c1cccnc1` (configuration not stated): the pIC50 at PRMT5/MEP50 complex is 5.00 to 6.00. In addition, the pEC50 in test [1] is 5.00 to 6.00.
Take `NC(=O)c1ccccc1OCC(=O)NCC(O)CN1CCc2ccccc2C1` (configuration not stated): at PRMT5/MEP50 complex, the pIC50 is 6.00 to 7.00. Also, the figures for the pEC50 in test [1] and in test [2] were 6.00 to 7.00 and under 4.70, respectively.
On to `Cn1nccc1-c1cccc(CC(=O)NCC(O)CN2CCc3ccccc3C2)c1` (configuration not stated), for which, at PRMT5/MEP50 complex, the pIC50 is 6.00 to 7.00. The pEC50 in test [1] is 6.00 to 7.00.
`CC(=O)Nc1cccc(OCC(=O)NCC(O)CN2CCc3ccccc3C2)c1` (configuration not stated): the pIC50 at PRMT5/MEP50 complex was 5.00 to 6.00. Also, the figures for the pEC50 in test [1] and in test [2] were 6.00 to 7.00 and 4.30 to 5.00, respectively.
As for `O=C(NCC(O)CN1CCc2ccccc2C1)c1cccc(OC2CCOCC2)c1` (configuration not stated), the pIC50 on PRMT5/MEP50 complex was 6.00 to 7.00. For the same compound, the pEC50 in test [1] is 6.00 to 7.00.
Take `Cn1ccnc1-c1ccccc1OCC(=O)NCC(O)CN1CCc2ccccc2C1` (configuration not stated): the pIC50 at PRMT5/MEP50 complex is 6.00 to 7.00. The pEC50 in test [1] was 5.00 to 6.00.
Turning to `O=C(COc1ccccc1F)NCC(O)CN1CCc2ccccc2C1` (configuration not stated), the pIC50 at PRMT5/MEP50 complex is 6.00 to 7.00. Moreover, the pEC50 in test [1] was 6.00 to 7.00; in test [2], 4.30 to 5.00.
Consider `Cn1cc2ccc(-c3cccc(OCC(O)CN4CCc5ccccc5C4)c3)cc2n1` (configuration not stated), for which, on PRMT5/MEP50 complex, the pIC50 is 6.00 to 7.00. The pEC50 in test [1] is under 4.70.
Take `CN(C)c1ccc(OCC(=O)NCC(O)CN2CCc3ccccc3C2)cc1` (configuration not stated): the pIC50 at PRMT5/MEP50 complex was 6.00 to 7.00. Besides, the pEC50 was 6.00 to 7.00 in test [1] and 4.30 to 5.00 in test [2].
Regarding `NC(=O)c1cccc(OCC(=O)NCC(O)CN2CCc3ccccc3C2)c1` (configuration not stated), on PRMT5/MEP50 complex, the pIC50 is 6.00 to 7.00. The pEC50 in test [1] is 6.00 to 7.00; in test [2], 4.30 to 5.00.
As to `CC(Oc1cccc2cccnc12)C(=O)NCC(O)CN1CCc2ccccc2C1` (configuration not stated), the pIC50 at PRMT5/MEP50 complex was over 7.00. In addition, the pEC50 in test [1] is over 7.00; in test [2], 6.00 to 7.00.
For `N#Cc1cccc(OCC(=O)NCC(O)CN2CCc3ccccc3C2)c1` (configuration not stated), the pIC50 on PRMT5/MEP50 complex is 6.00 to 7.00. In addition, the pEC50 was 6.00 to 7.00 in test [1] and 4.30 to 5.00 in test [2].
For the compound `O=c1cc(-c2ccccc2)ccn1C[C@H](O)CN1CCc2ccccc2C1`, in test [1], the pEC50 was under 4.30.
As to `O=C(Cc1cccc2cccnc12)NCC(O)CN1CCc2ccccc2C1` (configuration not stated), on PRMT5/MEP50 complex, the pIC50 is 6.00 to 7.00. Besides, the pEC50 in test [1] was 5.00 to 6.00.
In the case of `Cc1ccc(OCC(=O)NCC(O)CN2CCc3ccccc3C2)cc1` (configuration not stated), the pIC50 on PRMT5/MEP50 complex is 6.00 to 7.00. Further, the pEC50 in test [1] and in test [2] was 4.30 to 5.00 throughout.
Consider `OC(COC1CCOCC1)CN1CCc2ccccc2C1` (configuration not stated), for which the pIC50 on PRMT5/MEP50 complex was 4.40 to 5.00. In addition, the pEC50 in test [2] is under 4.40.
On to `COc1ccc(OCC(=O)NCC(O)CN2CCc3ccccc3C2)cc1` (configuration not stated), for which the pIC50 on PRMT5/MEP50 complex was 6.00 to 7.00. Further, the pEC50 is 6.00 to 7.00 in test [1] and 4.30 to 5.00 in test [2].
`CN(C)c1cccc(OCC(=O)NCC(O)CN2CCc3ccccc3C2)c1` (configuration not stated): the pIC50 on PRMT5/MEP50 complex was over 7.00. In addition, the pEC50 was 6.00 to 7.00 in test [1] and 5.00 to 6.00 in test [2].
Regarding `O=C1CN(c2ccc(CO)cc2)CCN1CC(O)CN1CCc2ccccc2C1` (configuration not stated), the pIC50 on PRMT5/MEP50 complex is 6.00 to 7.00. Also, in test [1], the pEC50 was 5.00 to 6.00.
Take `O=C1CN(c2cccc(Cl)c2)CCN1CC(O)CN1CCc2ccccc2C1` (configuration not stated): on PRMT5/MEP50 complex, the pIC50 was over 7.00. Also, the pEC50 in test [1] was 5.00 to 6.00.
